Assay results taken from patent US7598028B2, “Compositions and methods for detecting and treating prostate disorders” (The Regents of the University of Michigan, priority 2006, dated 2009).
Entries after “also recorded” stand apart in the source; their conditions may differ.

Legend:
Assay type in all cases: cell-based, human
p65 subunit of NF-kappaB = test: Western blot, p65 phosphorylation in N15C6 cells; conditions: 10 pM, 100 pM or 1 nM CXCL5 tested
Description: Western blot analysis Cells were lysed, proteins resolved by electrophoresis and electroblotting was carried out as described previously (Chaib H, et al., (2001) Cancer Res. 61, 2390-2394; incorporated herein by reference in its entirety). Proteins were detected using antibodies against phospho-ERK½ (Cell Signaling no. 9101), total ERK½ (Cell Signaling, no. 9102), CXCR4 (Abcam no. ab2074), CXCR7 (Abcam #Ab12870, Abcam #Ab12871, Abcam #38089), phospho-p65 (Rockland no. 100-401-264), total p65 (Rockland no. 100-4165), or beta-actin (Santa Cruz no. sc-1615), in conjunction with an ECL detection system.
Western Blot and Protein Analysis. […] Proteins were detected using antibodies against phospho-ERK½ (Cell Signaling #9101), total ERK½ (Cell Signaling, #9102), phospho-p65, (Rockland #100-401-264), total p65 (Rockland #100-4165), STAT3 (9139), phospho-STAT3 (9138), beta-actin (Santa Cruz #sc-1615), or tubulin (Upstate, #DM1A) in conjunction with an ECL detection system. […] Densitometric quantitation of immunoblot films was accomplished by scanning the original films and converting the .tiff files to grayscale. Images were inverted, and mean band intensities were measured using ImageJ (www, followed by, .nih.gov). The mean intensity of adjacent background was also measured for each band and subtracted from band intensity.

[1] = test system: PC3 prostate cancer cells; test: Matrigel invasion assay, PC3; conditions: 20 nM chemokine
Description: Invasion Assays. Ability to invade through synthetic basement membrane was measured by plating 15,000 cells/well onto control or Matrigel-coated membranes in duplicate using 24-well BD Matrigel Invasion Chambers (Becton-Dickinson). Cells were plated in complete media and left untreated or pre-treated with 1 ug/ml anti-CXCR2 (Biosource AHR1532X) or anti-CXCR4 (BD Pharmingen 555971) for 2 hours, then exposed to complete media only or 20 nM CXCL5 as a chemo-attractant added to the companion plate. After 24 hours of incubation, the upper surface of the membranes were ‘scrubbed’ to remove non-invasive cells, and the cells that had invaded through to the lower surface of the Matrigel-coated membranes or to the bottom of the companion plate were fixed, stained, and counted. The number of invaded cells was calculated as the average number of cells present on the lower surface of the Matrigel-coated membrane and the companion plate counted over four low power (10× objective) microscopic fields per membrane over both wells per experimental condition. […]

STAT3 [2] = test: Western blot, STAT3 phosphorylation in LNCaP cells; conditions: sub-nanomolar or nanomolar levels of CXCL5
Description: (§1) Western Blot and Protein Analysis. Cells were lysed, proteins resolved by electrophoresis, and electroblotting was carried out as described previously except that 20 ug protein was electrophoresed per gel lane for N15C6 cells and 100 ug protein for LNCaP cells (see, e.g., Begley L, et al., Aging Cell. 2005 December; 4(6):291-8; Begley L A, et al., J Biol. Chem. 2007 Sep. 14; 282(37):26767-74; each herein incorporated by reference in their entireties). Proteins were detected using antibodies against phospho-ERK½ (Cell Signaling #9101), total ERK½ (Cell Signaling, #9102), phospho-p65, (Rockland #100-401-264), total p65 (Rockland #100-4165), STAT3 (9139), phospho-STAT3 (9138), beta-actin (Santa Cruz #sc-1615), or tubulin (Upstate, #DM1A) in conjunction with an ECL detection system. Secondary antibodies included goat anti-rabbit (Cell Signaling, #7074) and goat anti-mouse (Santa Cruz, #SC-2005), and both were used at a 1:5000 concentration. Immunoblots shown are representative of triplicate experiments. Densitometric quantitation of immunoblot films was accomplished by scanning the original films and converting the .tiff files to grayscale. Images were inverted, and mean band intensities were measured using ImageJ (www, followed by, .nih.gov). The mean intensity of adjacent background was also measured for each band and subtracted from band intensity.

p65 subunit of NFkappaB = test: Western blot, p65 phosphorylation in LNCaP cells
Description: as §1

ERK ½ = test: Western blot, ERK phosphorylation in LNCaP cells
Description: Western Blot Analysis. Cells were lysed, proteins resolved by electrophoresis, and electroblotting was carried out as described previously (see, e.g.; Chaib H, et al., 2001 Cancer Res. 61, 2390-2394; incorporated herein by reference in its entirety). Proteins were detected using antibodies against phospho-ERK½ (Cell Signaling #9101), total ERK½ (Cell Signaling #9102), CXCR4 (Abcam #ab2074), Elk-1 (Cell Signaling #9182), Phospho Elk-1 (Cell Signaling #9181), or beta-actin (Santa Cruz #sc-1615), in conjunction with an ECL detection system.
as §1

[3] = test system: PC3 prostate epithelial cells; test: Proliferation assay, PC3; conditions: 0.001-1 nM CXCL5, p<0.05
Description: (§2) Proliferation Assays. Cellular proliferation was assessed after plating cells at 50,000 cell/well in triplicate in six well plates and counting cells after 24 and 96 hours of incubation as described previously (see, e.g., Begley L, et al., Genes Chromosomes Cancer. 2006 February; 45(2): 136-46; herein incorporated by reference in its entirety). To assess the effects of exogenous CXCL5 on cellular proliferation, recombinant human CXCL5 (R&D Systems, 254-X) was added at the desired concentration in 2 ml SF media (or 2 ml SF media alone for control) to each well. The cells were re-fed at 24 hours growth and counted at 24 and 96 hours growth. Cell counts were normalized to 50,000 cells at 24 hours to account for any plating discrepancies. Averages and standard deviations of cell number were calculated for each time point under each media condition. For the antibody blockade experiments, 10,000 cells per well were plated in triplicate in 24 well dishes and preincubated with mouse anti-human CXCR2 (Biosource AHR1532X) or mouse antihuman CXCR4 (BD Pharmingen 555971) at 1 ug/ml for 1 hour prior to CXCL5 addition. Cells were maintained in media containing appropriate antibodies for the entirety of the experiment and were counted at 24 and 96 hours as above.

[4] = test system: 22Rv1 prostate epithelial cells; test: Proliferation assay, 22Rv1; conditions: 0.001-1 nM CXCL5, p<0.05
Description: as §2

STAT3 [5] = test: Western blot, STAT3 phosphorylation in N15C6 cells; conditions: 10 pM, 100 pM or 1 nM CXCL5
Description: as §1

Substance: CXCL5: recombinant human CXCL5 (R&D Systems, 254-X), CXC-type chemokine
- NFkappaB subunit activation (p65 subunit of NF-kappaB): evident only after treatment with 1 nM CXCL5
- invasion through Matrigel versus control media / vehicle [1]: invaded; also recorded: significantly more
- activation of STAT3 (STAT3 [2]): not observed
- phosphorylation of the p65 subunit of NFkappaB (p65 subunit of NFkappaB; 10 pM or 100 pM CXCL5): rapidly and transiently phosphorylated
- activation of NFkappaB (p65 subunit of NFkappaB; nanomolar levels of CXCL5): not evident
- ERK ½ phosphorylation (ERK ½; 10 pM or 100 pM CXCL5): rapidly and transiently phosphorylated
- activation of ERK ½ (ERK ½; nanomolar levels of CXCL5): not evident
- proliferation versus SF media alone [3]: significantly higher
- proliferation versus SF media alone [4]: significantly higher
- STAT3 phosphorylation (STAT3 [5]): rapidly and transiently phosphorylated
